The results in this text go back to US20070149523A1, “Thiazole Analogues and Uses Thereof” (priority 2005, published 2007).

Common to all, as to assay: In vitro protein kinase assay (radioisotopic 33P, FlashPlate)
Holding throughout (assay type): biochemical
What all share (conditions): recombinant human kinase

The target in experiment [1] is T1, TRK-A (Homo sapiens, UniProt P04629).
T1 construct: made in house; host or cells: Sf9 insect cells (baculovirus)
On the procedure:
(§1) The effect of the thiazole derivatives was tested on recombinant, human protein kinases in in vitro protein kinase assays.
(§2) The protein kinases were expressed in Sf9 insect cells as human recombinant GST-fusion proteins or as His-tagged proteins by means of the baculovirus expression system.
(§3) The kinase activity was measured with a radioisotopic protein kinase assay by measuring the incorporation of ^33P-phosphate into proteins or peptide substrates. The assays were performed in FlashPlate™ microtiter scintillation plates and incorporation of ^33P-phosphate was determined with a microplate scintillation counter.

Experiment [2] has as its target T2, IRAK4 (Homo sapiens, UniProt Q9NWZ3).
T2 construct: made in house; host or cells: Sf9 insect cells (baculovirus)
T2 sequence (Q9NWZ3 1-460): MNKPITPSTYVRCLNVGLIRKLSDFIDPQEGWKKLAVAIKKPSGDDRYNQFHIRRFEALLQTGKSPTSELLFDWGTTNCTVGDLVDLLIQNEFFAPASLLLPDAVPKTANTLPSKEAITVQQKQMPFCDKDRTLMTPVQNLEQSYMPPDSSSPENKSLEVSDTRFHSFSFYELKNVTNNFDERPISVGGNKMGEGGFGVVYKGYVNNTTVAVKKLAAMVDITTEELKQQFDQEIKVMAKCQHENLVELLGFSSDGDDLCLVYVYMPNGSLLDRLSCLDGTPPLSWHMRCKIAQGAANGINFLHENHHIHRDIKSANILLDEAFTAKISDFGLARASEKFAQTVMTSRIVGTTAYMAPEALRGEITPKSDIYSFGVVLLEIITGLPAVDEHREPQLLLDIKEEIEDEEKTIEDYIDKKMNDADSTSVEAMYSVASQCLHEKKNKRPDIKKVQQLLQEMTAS
As to the method:
as §1, §2, §3

Experiment [3] addresses T3, EGF-R (Homo sapiens, UniProt P00533).
T3 construct: made in house; host or cells: Sf9 insect cells (baculovirus)
On the procedure: as §1, §2, §3

Experiment [4] has as its target T4, VEGF-R1 (Homo sapiens, UniProt P17948).
T4 construct: made in house; host or cells: Sf9 insect cells (baculovirus)
On the procedure:
as §1, §2, §3

Experiment [5] concerns the target T5, LCK (Homo sapiens, UniProt P06239).
T5 construct: made in house; host or cells: Sf9 insect cells (baculovirus)
On the procedure:
as §1, §2, §3

For experiment [6], the target named is T6, VEGF-R3 (Homo sapiens, UniProt P35916).
T6 construct: made in house; host or cells: Sf9 insect cells (baculovirus)
As to the method:
as §1, §2, §3

The target of experiment [7] is T7, TIE2 (Homo sapiens, UniProt Q02763).
T7 construct: made in house; host or cells: Sf9 insect cells (baculovirus)
As to the method: as §1, §2, §3

Experiment [8] deals with T8, RET (Homo sapiens, UniProt P07949).
T8 construct: made in house; host or cells: Sf9 insect cells (baculovirus)
T8 sequence (P07949 29-1114): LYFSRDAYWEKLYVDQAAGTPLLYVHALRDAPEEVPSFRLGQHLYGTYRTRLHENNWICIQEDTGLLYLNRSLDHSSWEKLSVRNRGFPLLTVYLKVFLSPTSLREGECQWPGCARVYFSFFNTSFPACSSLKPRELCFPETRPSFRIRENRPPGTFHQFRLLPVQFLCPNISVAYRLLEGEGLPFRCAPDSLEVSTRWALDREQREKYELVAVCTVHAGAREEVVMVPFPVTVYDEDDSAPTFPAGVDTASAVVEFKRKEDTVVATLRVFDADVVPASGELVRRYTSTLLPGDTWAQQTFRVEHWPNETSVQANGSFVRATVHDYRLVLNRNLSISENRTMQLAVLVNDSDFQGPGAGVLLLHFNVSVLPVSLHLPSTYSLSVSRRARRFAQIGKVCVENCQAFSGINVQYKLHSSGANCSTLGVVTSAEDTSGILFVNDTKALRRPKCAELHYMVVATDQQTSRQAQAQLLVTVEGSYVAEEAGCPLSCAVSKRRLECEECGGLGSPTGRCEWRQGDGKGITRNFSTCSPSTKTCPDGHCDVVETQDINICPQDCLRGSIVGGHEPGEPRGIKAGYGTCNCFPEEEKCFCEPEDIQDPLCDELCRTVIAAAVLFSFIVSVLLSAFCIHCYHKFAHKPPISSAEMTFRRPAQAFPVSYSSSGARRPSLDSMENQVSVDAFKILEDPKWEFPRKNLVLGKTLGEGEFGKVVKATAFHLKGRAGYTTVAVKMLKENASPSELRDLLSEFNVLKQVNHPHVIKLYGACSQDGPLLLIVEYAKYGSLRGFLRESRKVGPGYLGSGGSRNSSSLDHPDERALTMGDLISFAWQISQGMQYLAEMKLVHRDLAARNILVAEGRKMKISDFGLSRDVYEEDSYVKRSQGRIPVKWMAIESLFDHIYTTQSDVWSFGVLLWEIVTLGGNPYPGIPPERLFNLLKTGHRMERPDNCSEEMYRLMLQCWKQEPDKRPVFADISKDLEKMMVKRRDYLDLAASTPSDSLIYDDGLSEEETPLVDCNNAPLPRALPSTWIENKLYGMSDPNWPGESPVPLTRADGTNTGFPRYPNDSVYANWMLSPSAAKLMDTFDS
As to the method: as §1, §2, §3

Experiment [9] deals with T9, FLT3 (Homo sapiens, UniProt P36888).
T9 construct: made in house; host or cells: Sf9 insect cells (baculovirus)
T9 sequence (P36888 27-993): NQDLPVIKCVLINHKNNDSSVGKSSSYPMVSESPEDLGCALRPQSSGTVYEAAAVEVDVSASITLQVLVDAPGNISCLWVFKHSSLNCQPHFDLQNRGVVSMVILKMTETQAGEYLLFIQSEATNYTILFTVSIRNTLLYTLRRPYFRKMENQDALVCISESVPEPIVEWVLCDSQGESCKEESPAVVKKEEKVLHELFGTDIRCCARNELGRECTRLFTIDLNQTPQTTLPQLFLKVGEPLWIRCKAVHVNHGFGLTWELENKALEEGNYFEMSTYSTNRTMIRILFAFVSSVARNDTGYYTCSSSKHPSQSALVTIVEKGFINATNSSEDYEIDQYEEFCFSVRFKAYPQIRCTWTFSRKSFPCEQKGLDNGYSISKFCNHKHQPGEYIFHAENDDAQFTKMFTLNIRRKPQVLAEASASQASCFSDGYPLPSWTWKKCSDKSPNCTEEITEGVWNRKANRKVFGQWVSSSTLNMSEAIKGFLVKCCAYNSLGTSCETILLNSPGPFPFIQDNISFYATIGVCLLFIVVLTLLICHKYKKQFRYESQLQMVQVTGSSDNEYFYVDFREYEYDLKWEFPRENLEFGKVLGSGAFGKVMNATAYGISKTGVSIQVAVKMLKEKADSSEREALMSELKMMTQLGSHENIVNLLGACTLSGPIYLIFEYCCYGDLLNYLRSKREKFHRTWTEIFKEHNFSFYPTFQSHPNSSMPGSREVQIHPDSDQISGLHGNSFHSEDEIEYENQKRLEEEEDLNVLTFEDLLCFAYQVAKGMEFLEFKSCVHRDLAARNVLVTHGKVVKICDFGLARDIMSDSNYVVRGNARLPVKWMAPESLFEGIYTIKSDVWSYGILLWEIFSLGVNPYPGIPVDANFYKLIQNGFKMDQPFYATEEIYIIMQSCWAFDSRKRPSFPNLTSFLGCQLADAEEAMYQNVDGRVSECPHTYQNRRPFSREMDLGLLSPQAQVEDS
On the procedure:
as §1, §2, §3

Experiment [10] deals with T10, PDGF-Rα (Homo sapiens, UniProt P16234).
T10 construct: made in house; host or cells: Sf9 insect cells (baculovirus)
As to the method:
as §1, §2, §3

Experiment [11] deals with T11, Aurora A (Homo sapiens, UniProt O14965).
T11 construct: made in house; host or cells: Sf9 insect cells (baculovirus)
T11 sequence (O14965 1-403): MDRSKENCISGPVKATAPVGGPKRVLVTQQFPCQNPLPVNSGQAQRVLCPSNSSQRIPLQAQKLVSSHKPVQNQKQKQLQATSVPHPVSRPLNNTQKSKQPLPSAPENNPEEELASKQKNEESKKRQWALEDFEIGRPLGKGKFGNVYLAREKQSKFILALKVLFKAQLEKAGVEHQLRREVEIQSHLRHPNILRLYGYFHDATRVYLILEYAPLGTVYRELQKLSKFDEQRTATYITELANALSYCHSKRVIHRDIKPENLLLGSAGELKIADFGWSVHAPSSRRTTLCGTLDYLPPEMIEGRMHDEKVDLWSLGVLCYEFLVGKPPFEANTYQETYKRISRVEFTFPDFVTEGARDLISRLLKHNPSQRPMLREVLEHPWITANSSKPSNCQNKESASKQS
As to the method:
as §1, §2, §3

In experiment [12] the target is T12, KIT (Homo sapiens, UniProt P10721).
T12 construct: made in house; host or cells: Sf9 insect cells (baculovirus)
On the procedure: as §1, §2, §3

For experiment [13], the target named is VEGF-R2 (Homo sapiens, UniProt P35968). Further details: made in house; host or cells: Sf9 insect cells (baculovirus). As to the method:
as §1, §2, §3

Experiment [14] has as its target PDGF-Rβ (Homo sapiens, UniProt P09619). Also noted: made in house; host or cells: Sf9 insect cells (baculovirus). On the procedure:
as §1, §2, §3

Experiment [15] concerns the target Aurora B (Homo sapiens, UniProt Q96GD4). Also noted: made in house; host or cells: Sf9 insect cells (baculovirus). As to the method:
as §1, §2, §3

Sequence of Aurora B (Q96GD4 whole entry): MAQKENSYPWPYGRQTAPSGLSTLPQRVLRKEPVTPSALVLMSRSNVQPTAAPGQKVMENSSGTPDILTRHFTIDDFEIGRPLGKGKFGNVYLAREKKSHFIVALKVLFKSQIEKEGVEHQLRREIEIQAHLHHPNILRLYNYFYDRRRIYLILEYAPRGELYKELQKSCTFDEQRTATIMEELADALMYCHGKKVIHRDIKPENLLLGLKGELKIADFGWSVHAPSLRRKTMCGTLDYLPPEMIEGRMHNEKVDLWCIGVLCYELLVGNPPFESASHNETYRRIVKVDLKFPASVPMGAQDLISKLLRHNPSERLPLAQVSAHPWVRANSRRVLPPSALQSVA
Sequence of VEGF-R2 (P35968 20-1356): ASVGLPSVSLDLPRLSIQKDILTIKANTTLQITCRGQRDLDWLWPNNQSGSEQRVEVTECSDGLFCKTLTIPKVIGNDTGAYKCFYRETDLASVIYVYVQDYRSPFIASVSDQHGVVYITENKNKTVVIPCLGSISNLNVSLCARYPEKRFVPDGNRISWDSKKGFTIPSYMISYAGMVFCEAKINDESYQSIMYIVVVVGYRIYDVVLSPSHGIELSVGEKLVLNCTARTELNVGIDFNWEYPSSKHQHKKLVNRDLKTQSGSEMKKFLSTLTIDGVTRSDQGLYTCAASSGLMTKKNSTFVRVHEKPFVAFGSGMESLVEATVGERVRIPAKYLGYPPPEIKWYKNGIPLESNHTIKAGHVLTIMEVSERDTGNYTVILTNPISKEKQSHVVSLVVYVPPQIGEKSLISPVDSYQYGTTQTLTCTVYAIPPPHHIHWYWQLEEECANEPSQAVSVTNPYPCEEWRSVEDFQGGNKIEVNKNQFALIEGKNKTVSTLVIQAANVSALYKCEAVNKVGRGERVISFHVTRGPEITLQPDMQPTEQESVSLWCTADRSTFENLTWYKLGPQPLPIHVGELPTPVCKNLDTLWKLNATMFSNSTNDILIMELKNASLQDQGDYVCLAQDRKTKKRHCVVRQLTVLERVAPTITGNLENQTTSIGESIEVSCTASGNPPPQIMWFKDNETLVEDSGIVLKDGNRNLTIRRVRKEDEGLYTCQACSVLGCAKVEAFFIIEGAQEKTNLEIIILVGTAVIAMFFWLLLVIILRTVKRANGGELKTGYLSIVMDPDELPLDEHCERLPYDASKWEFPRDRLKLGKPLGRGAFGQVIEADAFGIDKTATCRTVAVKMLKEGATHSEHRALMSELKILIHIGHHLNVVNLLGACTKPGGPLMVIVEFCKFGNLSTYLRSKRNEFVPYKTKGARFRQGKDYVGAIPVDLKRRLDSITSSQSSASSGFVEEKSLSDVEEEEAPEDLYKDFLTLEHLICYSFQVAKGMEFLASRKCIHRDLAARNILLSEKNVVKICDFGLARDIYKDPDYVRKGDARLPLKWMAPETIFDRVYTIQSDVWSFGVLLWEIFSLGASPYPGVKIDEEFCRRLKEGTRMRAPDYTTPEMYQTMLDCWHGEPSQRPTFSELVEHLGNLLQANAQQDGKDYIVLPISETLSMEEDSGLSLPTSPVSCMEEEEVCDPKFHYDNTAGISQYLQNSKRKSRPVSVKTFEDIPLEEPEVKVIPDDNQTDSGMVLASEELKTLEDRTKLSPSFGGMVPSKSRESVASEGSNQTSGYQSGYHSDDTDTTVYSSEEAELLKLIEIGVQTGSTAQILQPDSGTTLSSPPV
T4 sequence (P17948 27-1338): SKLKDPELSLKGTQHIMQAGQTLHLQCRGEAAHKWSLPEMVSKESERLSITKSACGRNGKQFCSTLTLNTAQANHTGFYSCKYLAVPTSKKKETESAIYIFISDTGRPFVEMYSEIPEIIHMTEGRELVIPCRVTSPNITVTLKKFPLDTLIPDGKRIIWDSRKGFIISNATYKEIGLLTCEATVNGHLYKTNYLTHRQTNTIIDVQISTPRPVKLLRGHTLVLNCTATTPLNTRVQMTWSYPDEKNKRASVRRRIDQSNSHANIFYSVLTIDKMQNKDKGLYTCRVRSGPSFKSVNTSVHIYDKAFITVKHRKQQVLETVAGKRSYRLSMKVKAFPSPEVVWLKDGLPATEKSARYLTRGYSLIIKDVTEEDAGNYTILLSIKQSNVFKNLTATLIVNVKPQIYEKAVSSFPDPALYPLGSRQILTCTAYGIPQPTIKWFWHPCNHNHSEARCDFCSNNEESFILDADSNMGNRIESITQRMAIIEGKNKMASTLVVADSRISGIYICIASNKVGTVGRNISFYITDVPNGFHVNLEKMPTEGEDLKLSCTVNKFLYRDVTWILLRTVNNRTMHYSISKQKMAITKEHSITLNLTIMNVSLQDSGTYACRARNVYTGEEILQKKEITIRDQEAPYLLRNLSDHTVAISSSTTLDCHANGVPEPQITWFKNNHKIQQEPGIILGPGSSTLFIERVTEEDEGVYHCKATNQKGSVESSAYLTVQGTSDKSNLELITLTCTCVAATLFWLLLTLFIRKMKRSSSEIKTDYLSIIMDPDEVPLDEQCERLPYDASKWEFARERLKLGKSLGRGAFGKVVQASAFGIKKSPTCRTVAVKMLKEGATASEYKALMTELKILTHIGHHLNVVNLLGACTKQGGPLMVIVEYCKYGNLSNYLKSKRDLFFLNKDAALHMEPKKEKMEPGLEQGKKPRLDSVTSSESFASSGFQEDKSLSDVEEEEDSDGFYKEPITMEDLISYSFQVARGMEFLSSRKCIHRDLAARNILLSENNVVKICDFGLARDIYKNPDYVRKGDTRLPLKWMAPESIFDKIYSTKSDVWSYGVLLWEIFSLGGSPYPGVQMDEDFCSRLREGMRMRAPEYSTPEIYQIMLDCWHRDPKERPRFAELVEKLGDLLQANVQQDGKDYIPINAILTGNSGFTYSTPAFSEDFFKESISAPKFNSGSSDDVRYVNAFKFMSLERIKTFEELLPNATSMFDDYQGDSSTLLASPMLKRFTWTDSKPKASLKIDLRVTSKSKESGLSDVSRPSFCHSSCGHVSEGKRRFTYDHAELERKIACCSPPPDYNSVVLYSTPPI
T5 sequence (P06239 whole entry): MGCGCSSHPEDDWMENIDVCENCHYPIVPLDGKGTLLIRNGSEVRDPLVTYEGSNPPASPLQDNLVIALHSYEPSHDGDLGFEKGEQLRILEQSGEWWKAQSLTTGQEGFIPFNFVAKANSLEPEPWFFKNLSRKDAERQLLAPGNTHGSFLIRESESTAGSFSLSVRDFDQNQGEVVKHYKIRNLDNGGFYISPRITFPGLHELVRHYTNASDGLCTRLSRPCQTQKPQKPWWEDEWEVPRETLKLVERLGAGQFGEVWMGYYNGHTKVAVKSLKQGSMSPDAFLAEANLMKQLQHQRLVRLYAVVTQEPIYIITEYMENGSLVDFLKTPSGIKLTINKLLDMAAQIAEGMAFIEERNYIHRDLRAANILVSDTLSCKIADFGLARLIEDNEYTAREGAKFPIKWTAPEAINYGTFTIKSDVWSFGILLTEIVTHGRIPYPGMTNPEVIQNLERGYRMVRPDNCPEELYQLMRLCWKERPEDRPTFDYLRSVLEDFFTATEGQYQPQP

Take `COc1cc2c(Nc3ncc(CCC(=O)Nc4ccc(F)cc4)s3)ncnc2cc1OCCCN1CCCC1` [Compound 9, N-(4-fluorophenyl)-3-(2-(6-methoxy-7-(3-(pyrrolidin-1-yl)propoxy)quinazolin-4-ylamino)thiazol-5-yl)propanamide]: the 50% inhibitory concentration (IC50) turned out to be 430 nM in experiment [1]; 2200 nM in experiment [2]; 10000 nM in [3]; 640 nM in experiment [4]; 2300 nM in experiment [5]; 110 nM in experiment [6]. Moreover, the concentration for half-maximal inhibition (IC50) was found to be 430 nM in experiment [7]; 880 nM in experiment [8]; 600 nM in experiment [9]; 1000 nM in experiment [10]; 710 nM in experiment [11]; 110 nM in experiment [12]. The 50% inhibitory concentration (IC50) in experiment [13] amounted to 96 nM; in experiment [14], 1100 nM; in experiment [15], 470 nM.
